Test results taken from article PMC5065773 (Antiviral research, 2016).
Like-named read-outs stand apart in the source and are kept apart here.

Key:
DENV2 protease [1] = target: T1, DENV2 protease (Dengue virus type 2, UniProt P14340); test: Tryptophan; assay type: binding, dengue virus serotype 2 (DENV2); details: for Quenching of tryptophan fluorescence of DENV2 protease: 0.09-50 μM inhibitor, 2 μM protease; for Competition with BPTI in fluorescence quenching: 50 μM compound and 10 μM BPTI
DENV 4 Pro = DENV 4 Pro (Dengue virus type 4, UniProt P09866); test: In vitro protease assay with fluorogenic substrate Bz-Nle-Lys-Arg-Arg-AMC; assay type: biochemical, dengue virus serotype 4 (DENV4); details: for Hill-slope DENV 4 Pro: Hill slope of IC50 curve
Sequence of DENV 4 Pro (P09866 1475-1652): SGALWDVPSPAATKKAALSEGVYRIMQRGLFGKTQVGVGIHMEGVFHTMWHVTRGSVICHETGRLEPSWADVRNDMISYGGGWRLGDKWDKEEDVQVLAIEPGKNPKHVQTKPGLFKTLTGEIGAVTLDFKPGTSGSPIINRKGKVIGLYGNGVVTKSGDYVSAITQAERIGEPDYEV

DENV2 protease [2] = target: T1, DENV2 protease; test: as above; assay type: biochemical, dengue virus serotype 2 (DENV2); details: for Hill-Slope DENV 2 Pro: Hill slope of IC50 curve
WNV protease = WNV protease (West Nile virus, UniProt Q9Q6P4); test: as above; assay type: biochemical; details: for Hill-slope WNV Pro: Hill slope of IC50 curve; for inhibition at 25 µM: read-out: Inhibition of WNVpro (%) At 25 μM
Sequence of WNV protease (Q9Q6P4 1428-1467): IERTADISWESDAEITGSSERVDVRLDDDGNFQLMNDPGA
Sequence of WNV protease (Q9Q6P4 1506-1683): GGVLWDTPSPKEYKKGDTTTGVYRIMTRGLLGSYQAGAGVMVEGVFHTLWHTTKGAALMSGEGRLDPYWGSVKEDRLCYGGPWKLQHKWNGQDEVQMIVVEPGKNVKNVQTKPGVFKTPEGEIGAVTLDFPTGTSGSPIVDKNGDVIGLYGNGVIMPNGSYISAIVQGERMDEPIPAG

DENV2 protease [3] = target: T1, DENV2 protease; test: Determination of Ki and kinetics of inhibition; assay type: biochemical, dengue virus serotype 2 (DENV2); details: for Mode of inhibition (Lineweaver-Burk plots): DENV2 protease
BHK-21 cells = test: Cytotoxicity to BHK-21 cells; assay type: cell-based; details: for CC50: ~24 h, CCK-8
DENV2 = test: Viral RNA copy number by qRT-PCR in DENV2-infected BHK-21 cells; assay type: cell-based; details: 24 h
DENV 3 Pro = DENV 3 Pro (Dengue virus type 3, UniProt P27915); test: In vitro protease assay with fluorogenic substrate Bz-Nle-Lys-Arg-Arg-AMC; assay type: biochemical, dengue virus serotype 3 (DENV3); details: for Hill-slope DENV 3 Pro: Hill slope of IC50 curve
Sequence of DENV 3 Pro (P27915 1474-1651): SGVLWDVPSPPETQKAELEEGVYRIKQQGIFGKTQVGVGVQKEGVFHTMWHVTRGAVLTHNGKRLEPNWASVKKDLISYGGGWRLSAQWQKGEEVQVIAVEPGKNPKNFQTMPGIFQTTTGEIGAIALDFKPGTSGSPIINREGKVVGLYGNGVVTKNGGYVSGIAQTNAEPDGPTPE

DENV 1 Pro = DENV 1 Pro (Dengue virus type 1, UniProt P17763); test: as above; assay type: biochemical, dengue virus serotype 1 (DENV1); details: for Hill-slope DENV 1 Pro: Hill slope of IC50 curve
Sequence of DENV 1 Pro (P17763 1394-1445, looked up, natural form): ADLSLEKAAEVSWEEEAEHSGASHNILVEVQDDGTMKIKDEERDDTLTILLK
Sequence of DENV 1 Pro (P17763 1476-1660): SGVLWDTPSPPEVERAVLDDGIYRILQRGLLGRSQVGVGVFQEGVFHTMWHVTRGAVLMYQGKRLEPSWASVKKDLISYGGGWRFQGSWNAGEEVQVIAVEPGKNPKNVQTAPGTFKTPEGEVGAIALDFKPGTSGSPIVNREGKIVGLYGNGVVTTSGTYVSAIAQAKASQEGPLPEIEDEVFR

WNVpro = details: read-out: Ki of BPTI against WNVpro; ref Aleshin et al., 2007; cited from earlier work
DENV2pro = details: read-out: Ki of BPTI against DENV2pro; ref Mueller et al., 2007; cited from earlier work
DENV2 replicon = test: Renilla luciferase reporter replicon assay in stable BHK-21/DENV2 replicon cells; assay type: cell-based

T1 sequence (P14340 1476-1653): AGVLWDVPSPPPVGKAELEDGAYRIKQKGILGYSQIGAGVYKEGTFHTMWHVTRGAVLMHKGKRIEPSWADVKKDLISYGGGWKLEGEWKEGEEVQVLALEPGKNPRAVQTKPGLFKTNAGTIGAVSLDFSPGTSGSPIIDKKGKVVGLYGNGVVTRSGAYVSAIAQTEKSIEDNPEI

Compound	Quenching of tryptophan fluorescence of DENV2 protease (DENV2 protease [1])	IC50 (DENV 4 Pro) [nM]	Hill-slope DENV 4 Pro (DENV 4 Pro)	IC50 (DENV2 protease [2]) [nM]	Hill-Slope DENV 2 Pro (DENV2 protease [2])	IC50 (WNV protease) [nM]	Hill-slope WNV Pro (WNV protease)	inhibition at 25 µM (WNV protease) [%]	Ki (DENV2 protease [3]) [nM]	Hill-slope DENV 3 Pro (DENV 3 Pro)	IC50 (DENV 1 Pro) [nM]	Hill-slope DENV 1 Pro (DENV 1 Pro)	Competition with BPTI in fluorescence quenching (DENV2 protease [1])	Mode of inhibition (Lineweaver-Burk plots) (DENV2 protease [3])	CC50 (BHK-21 cells) [nM]	Inhibition of DENV2 viral RNA (qRT-PCR) vs DMSO control (DENV2; 2 μM compound)	also measured
Cc1ccc(C(=O)Nc2ccc(S(=O)(=O)O)c3cc(S(=O)(=O)O)cc(S(=O)(=O)O)c23)cc1NC(=O)c1cccc(NC(=O)Nc2cccc(C(=O)Nc3cc(C(=O)Nc4ccc(S(=O)(=O)O)c5cc(S(=O)(=O)O)cc(S(=O)(=O)O)c45)ccc3C)c2)c1 [Compound H, Suramin]	failed to quench the tryptophan fluorescence	3730 ± 140	1.25±0.12	2660 ± 190	0.97±0.04	3240 ± 110	1.29±0.03	73	870 ± 140	1.05±0.04	2760 ± 250	0.92±0.05	–	–	–	–	inhibition at 10 µM (DENV2 protease [2]; read-out: Inhibition of DENV2pro (%) At 10 μM): 72%; inhibition at 25 µM (DENV2 protease [2]; read-out: Inhibition of DENV2pro (%) At 25 μM): 85%; inhibition at 10 µM (WNV protease; read-out: Inhibition of WNVpro (%) At 10 μM): 58%; Cytotoxicity at the highest concentration tested (BHK-21 cells; ~ 100 μM, 24 h): did not exhibit any cytotoxicity; Inhibition of DENV2 viral RNA (qRT-PCR) vs DMSO control (DENV2; 10 μM compound): good inhibition; IC50 (DENV 3 Pro): 3250 ± 180 nM
Bovine pancreatic trypsin inhibitor [BPTI]	–	–	–	–	–	–	–	–	–	–	–	–	–	–	–	–	Ki (WNVpro): 24 nM; Ki (DENV2pro): 26 nM
Tannic acid [Compound G]	quenched tryptophan fluorescence in a dose dependent manner	–	0.79±0.03	–	1.60±0.07	–	0.88±0.05	–	–	1.53±0.06	–	1.79±0.09	partially restore the fluorescence	competitive inhibition	68100	good inhibition	Inhibition of DENV2pro (%) At 10 μM (DENV2 protease [2]; 10 μM compound): 99%; Inhibition of DENV2pro (%) At 25 μM (DENV2 protease [2]; 25 μM compound): 101%; Inhibition of WNVpro (%) At 10 μM (WNV protease; 10 μM compound): 98%; Inhibition of WNVpro (%) At 25 μM (WNV protease; 25 μM compound): 96%; IC50 (WNV protease; read-out: IC50 WNV Pro, mean of duplicate experiments ± SEM): 120 ± 10 nM; Ki (DENV2 protease [3]; competitive inhibition model, 20 nM DENV2 protease): 340 ± 50 nM
Cc1ccc(C(=O)c2cc(O)c(O)c([N+](=O)[O-])c2)cc1 [Compound F, Tolcapone]	quenched tryptophan fluorescence in a dose dependent manner	640 ± 30	1.45±0.05	980 ± 60	1.51±0.07	700 ± 40	1.58±0.05	95	220 ± 30	1.60±0.08	1150 ± 100	1.26±0.10	did not compete with BPTI	competitive inhibition	29200	good inhibition	EC50 (DENV2 replicon; Dengue virus, DENV2, BHK-21, 24 h, read-out: EC50 (μM) DENV2 Replicon): 2.29 ± 0.3 µM; Inhibition of DENV2 replicon replication (DENV2 replicon; screened at 5, 10 and 25 μM vs 1% DMSO control): inhibit DENV2 replication
